Measurements reported in patent publication US6280773A, “Optimally stabilized microgranule comprising 5-pyrrolyl-2-pyridylmethylsulfinylbenzimidazole derivative” (IL Yang Pharm. Co., Ltd., priority 1998, dated 2001).
Read-outs that look alike come from different tables or passages of the source.

Legend:
physchem = assay type: physicochemical; details: for remaining at 360 h: solid, 75% relative humidity, read-out: Content of the Active Ingredient after 15 days
Description: . Then, the content of the active ingredient not decomposed was analyzed using a high performance liquid chromatography. The sample containing only the active ingredient without a stabilizer was used as a control.
<Conditions for High Performance Liquid Chromatography>
Column: μ-Bondapak C18 (4.6×250 mm) or the like
Detector: Absorption photometer in ultraviolet part (wavelength: 280 nm)
Mobile Phase: acetonitrile/phosphate buffer (pH 7.8)=45/55, v/v

[1] = Stability of the microgranule prepared in the presence of a binding agent; assay type: physicochemical; details: microgranules of Table 3
Description: Microgranules were prepared according to the information represented in the following Table 3 using the stabilizers in a mole ratio of 1:1 with respect to the active ingredient (IY-81149) and using hydroxypropylmethylcellulose as a binding agent. A fluidized-bed granulator (SFC-MINI, FREUND. CO., LTD., Japan) by which the contact with the ambient moisture can be excluded and preparation and dryness of the granule can be simultaneously carried out in a short time was used. That is, the active ingredient and stabilizer were introduced into a chamber of the fluidized-bed granulator in the amounts shown in Table 3. Then, the binding agent-containing solution was sprayed under the influx air temperature (65° C.) of the chamber, during which the mixture of the active ingredient and stabilizer in the chamber was maintained at a temperature of 40° C. or less. The binding agent was used in an amount of 7% by weight with respect to the granule finally obtained, and the solvent water was used in an amount to dilute the binding agent by 15 times. Also, the total amount of the active ingredient and stabilizer to be introduced into the chamber was adjusted to 300 g. The average particle diameter of the microgranule prepared by appropriately controlling the spray rate and temperature was 0.8 mm.

| SMILES | stabilizing effect upon the active ingredient of the present invention (physchem) | Content of the Active Ingredient, initial (physchem; stabilizer not used (control)) [%] | Content of the Active Ingredient, initial (physchem; with Al(OH)3, mole ratio 1:1) [%] | Content of the Active Ingredient, initial (physchem; with Arginine, mole ratio 1:1) [%] | Content of the Active Ingredient, initial (physchem; with Histidine, mole ratio 1:1) [%] | Content of the Active Ingredient, initial (physchem; with K2 CO3, mole ratio 1:1) [%] | Content of the Active Ingredient, initial (physchem; with K2 HPO4, mole ratio 1:1) [%] | Content of the Active Ingredient, initial (physchem; with KHCO3, mole ratio 1:1) [%] | Content of the Active Ingredient, initial (physchem; with Lysine, mole ratio 1:1) [%] | Content of the Active Ingredient, initial (physchem; with Mg(OH)2, mole ratio 1:1) [%] | Content of the Active Ingredient, initial (physchem; with Na2 CO3, mole ratio 1:1) [%] | Content of the Active Ingredient, initial (physchem; with Na2 HPO4, mole ratio 1:1) [%] | Content of the Active Ingredient, initial (physchem; with NaHCO3, mole ratio 1:1) [%] | other results |
| --- | --- | --- | --- | --- | --- | --- | --- | --- | --- | --- | --- | --- | --- | --- |
| [OH][Al]([OH])[OH] [Al(OH)3, aluminum hydroxide] | much less stabilizing effect than magnesium hydroxide | – | – | – | – | – | – | – | – | – | – | – | – | – |
| NCCCC[C@H](N)C(=O)O [Lysine, lysine] | – | – | – | – | – | – | – | – | – | – | – | – | – | stabilizing effect upon the active ingredient of the present invention (physchem; compared with the other stabilizers (Examples 1 and 2)): much less stabilizing effect than magnesium hydroxide |
| COc1ccc2[nH]c([S+]([O-])Cc3ncc(C)c(OC)c3C)nc2c1 (centres unmarked) [Omeprazole, omeprazole, reference compound] | – | 99.3 | 99.6 | 99.1 | 99.7 | 100.0 | 99.4 | 99.9 | 99.2 | 100.2 | 100.1 | 99.8 | 99.7 | order of stabilizing effect of the tested stabilizers (physchem; mole ratio 1:1, 15 days, 40° C., relative humidity of 75%): Na2 HPO4 >NaHCO3 >Mg(OH)2 >arginine>Na2CO3 >K2 HPO4 >Al(OH)3 >histidine>K2 CO3 >lysine>KHCO3; remaining at 360 h (physchem; stabilizer not used (control), 40° C., relative humidity of 75%): 26.7%; remaining at 360 h (physchem; with Al(OH)3, mole ratio 1:1, 40° C., relative humidity of 75%): 67.6%; remaining at 360 h (physchem; with Arginine, mole ratio 1:1, 40° C., relative humidity of 75%): 76%; remaining at 360 h (physchem; with Histidine, mole ratio 1:1, 40° C., relative humidity of 75%): 67.1%; remaining at 360 h (physchem; with K2 CO3, mole ratio 1:1, 40° C., relative humidity of 75%): 63.9%; remaining at 360 h (physchem; with K2 HPO4, mole ratio 1:1, 40° C., relative humidity of 75%): 70.7%; remaining at 360 h (physchem; with KHCO3, mole ratio 1:1, 40° C., relative humidity of 75%): 59.4%; remaining at 360 h (physchem; with Lysine, mole ratio 1:1, 40° C., relative humidity of 75%): 60.3%; remaining at 360 h (physchem; with Mg(OH)2, mole ratio 1:1, 40° C., relative humidity of 75%): 86.1%; remaining at 360 h (physchem; with Na2 CO3, mole ratio 1:1, 40° C., relative humidity of 75%): 75.3%; remaining at 360 h (physchem; with Na2 HPO4, mole ratio 1:1, 40° C., relative humidity of 75%): 94%; remaining at 360 h (physchem; with NaHCO3, mole ratio 1:1, 40° C., relative humidity of 75%): 87.5% |
| COc1ccnc(C[S+]([O-])c2nc3cc(-n4cccc4)ccc3[nH]2)c1C (centres unmarked) [IY-81149] | – | 100.1 | 99.6 | 99.2 | 100.6 | 100.5 | 100.0 | 100.3 | 100.6 | 99.8 | 99.4 | 99.2 | 98.9 | – |
| [Mg+2].[OH-].[OH-] [Mg(OH)2, magnesium hydroxide] | superior stabilizing effect | – | – | – | – | – | – | – | – | – | – | – | – | stabilizing effect compared with the other stabilizers [1]: superior stabilizing effect |
